Test results as given in US20160101072A1, “Therapeutic uses of enzyme inhibitors” (Proximagen Limited, priority 2013, published 2016).
Marks after values point to notes of the source that are not given here.

How the values were obtained:
diaphragms of mdx mice = experiment: H & E staining of diaphragm sections of mdx mice (inflammatory infiltrates); type: in vivo, mouse; conditions: 20 mg/kg po once per day, 6 weeks, 12 week old mdx mice
Source text: (§1) The most studied animal model for DMD is the mdx mouse. This was first described by Bulfield et al (Proc. Natl. Acad. Sci. USA, 1984, 81:1189-1192). It has a point mutation within its dystrophin gene, and as a result the mouse has no functional dystrophin in its muscles. […] As it ages, certain muscle types (including the diaphragm) show weakness and increased fibrosis. […] This provides a quantitative framework for studying the pathogenesis of dystrophy (Stedman et al, Nature, 1991, 352, 536-539).
(§2) 12 week old mdx mice were treated with benserazide (20 mg/kg, po, once per day) or vehicle (water, once per day), in groups of 8 mice. After 6 weeks of treatment, diaphragms of the mice were collected and flash frozen in liquid nitrogen-cooled isopentane. The sections were stored on slides at −20° C. until required.
(§3) Hematoxylin and eosin (H & E) staining was used to show cytoplasmic, nuclear, and extracellular matrix features. Hematoxylin stains nucleic acids, and eosin stains proteins nonspecifically. Staining of F4/80 antigen (a glycoprotein expressed by murine macrophages) was used to show macrophages.

macrophages = experiment: Staining of murine F4/80 antigen in diaphragm sections of mdx mice (macrophage infiltration); type: in vivo, mouse; conditions: 20 mg/kg po once per day, 6 weeks, 12 week old mdx mice
Source text: as §1, §2, §3

CD11b+ myeloid cells = experiment: Cell sorting: recruitment of CD11b+ myeloid cells into muscles of mdx mice; type: in vivo, mouse; conditions: mdx mice muscle; for % change compared to vehicle (CD11b+ myeloid cells) / % of viable cells (CD11b+ myeloid cells): 4 weeks
Source text: (§4) In this example, labelled antibodies were used to assess infiltration of inflammatory myeloid and lymphoid cells into muscles of mdx mice following treatment of the mice with different doses of the glucocorticoid prednisolone, and the VAP-1 inhibitors carbidopa and benserazide. CD11b is a transmembrane glycoprotein which is expressed on the surface of granulocytes (including neutrophils and eosinophils), monocytes, NK cells, dendritic cells, tissue macrophages and subsets of T and B cells. Labelled antibody to CD11b was used to assess infiltration of inflammatory myeloid cells into muscles of mdx mice. Labelled antibody to Ly6C was used to assess infiltration of pro- and anti-inflammatory monocytes into muscles of mdx mice. Labelled antibody to CD4 and CD8a antigen was used to assess infiltration of Th cells (CD4^+CD8^-) and double negative (CD4^-CD8^-) T cells into muscles of mdx mice. A total of a ninety C57BU10ScSn-Dmdmdx/J male mice, 3 weeks of age (+/-3days), were transferred to the in vivo research laboratory in Bar Harbor, Me. Additional ten […] male mice 3 weeks of age (+/-3 days) were also transferred and served as a wild-type control group. The mice were ear notched for identification and housed in ventilated polysulfone cages with HEPA filtered air at a density of 3-4 mice per cage. The animal room was lit entirely with artificial fluorescent lighting on controlled 12 hour light/dark cycle (6 a.m. to 6 p.m. light). […] The animal room was set for 15 air exchanges per hour. Filtered tap water acidified to a pH of 2.8 to 3.2 was provided ad libitum. […] Prior to study initiation, mice were acclimated for 3 days. Mice were tested for grip strength and in the open field at ages 25 and 26 days, and drug regimen was initiated at age 27 days. Mice were monitored twice weekly for clinical observations and body weights. […] 24 hours after the second open field tests, blood was collected by retro-orbital bleeding, and mice were humanely euthanized by CO2 asphyxiation. One triceps surae was collected fresh and processed for immune cell sorting, one tibialis anterior was preserved in RNALater for RNA extraction, one whole hind limb and the diaphragm were fixed in 2% paraformaldehyde overnight at 4° C. for paraffin embedding and histology stains. For immune cell sorting, muscle samples were enzymatically and mechanically dissociated following manufacturer instructions (Skeletal Muscle Dissociation KitCatalog no. 130-098-305, Miltenyi Biotec). Cells were stained with the following antibodies: [table] Stained cells were analyzed on a BD LSR II cytometer and counts of different populations were expressed in percentage of the number of live cells counted.

[1] = tested on: CD11b+Ly6Chigh profibrotic myeloid cells (Ly6C+ monocytes); experiment: Cell sorting: recruitment of CD11b+Ly6Chigh profibrotic myeloid cells into muscles of mdx mice; type: in vivo, mouse; conditions: mdx mice muscle; for % change compared to vehicle (CD11b+Ly6Chigh profibrotic myeloid cells) / % of viable cells (CD11b+Ly6Chigh profibrotic myeloid cells): 4 weeks
Source text: as §4

[2] = tested on: CD11b+Ly6Clow anti-fibrotic myeloid cells (Ly6C- monocytes); experiment: Cell sorting: recruitment of CD11b+Ly6Clow anti-fibrotic myeloid cells into muscles of mdx mice; type: in vivo, mouse; conditions: for % change compared to vehicle (CD11b+Ly6Clow anti-fibrotic myeloid cells) / % of viable cells (CD11b+Ly6Clow anti-fibrotic myeloid cells): 4 weeks, mdx mice muscle
Source text: as §4

[3] = tested on: CD11b+Ly6Chigh profibrotic : CD11b+Ly6Clow anti-fibrotic myeloid cells; experiment: Ratio of profibrotic to anti-fibrotic myeloid cells in mdx mouse muscle; type: in vivo; conditions: both doses
Source text: In this example, labelled antibodies were used to assess infiltration of inflammatory myeloid and lymphoid cells into muscles of mdx mice following treatment of the mice with different doses of the glucocorticoid prednisolone, and the VAP-1 inhibitors carbidopa and benserazide. […] Labelled antibody to CD11b was used to assess infiltration of inflammatory myeloid cells into muscles of mdx mice. Labelled antibody to Ly6C was used to assess infiltration of pro- and anti-inflammatory monocytes into muscles of mdx mice. Labelled antibody to CD4 and CD8a antigen was used to assess infiltration of Th cells (CD4^+CD8^−) and double negative (CD4^−CD8^−) T cells into muscles of mdx mice.
A total of a ninety C57BU10ScSn-Dmdmdx/J male mice, 3 weeks of age (+/−3days), were transferred to the in vivo research laboratory in Bar Harbor, Me. Additional ten C57BU10ScSnJ male mice 3 weeks of age (+/−3 days) were also transferred and served as a wild-type control group. The mice were ear notched for identification and housed in ventilated polysulfone cages with HEPA filtered air at a density of 3-4 mice per cage. […]

[4] = tested on: lymphoid CD4+CD8- T cells; experiment: Cell sorting: recruitment of lymphoid CD4+CD8- T cells into muscles of mdx mice; type: in vivo, mouse; conditions: mdx mice muscle
Source text: as §4

[5] = tested on: lymphoid CD4-CD8- (double negative, DN) T cells; experiment: Cell sorting: recruitment of lymphoid CD4-CD8- (double negative, DN) T cells into muscles of mdx mice; type: in vivo, mouse; conditions: mdx mice muscle
Source text: as §4

TNF mRNA = experiment: mRNA quantification (RT PCR) of TNF in muscles of mdx mice; type: in vivo, mouse
Source text: (§5) A total of a ninety C57BU10ScSn-Dmdmdx/J male mice, 3 weeks of age (+/-3days), were transferred to the in vivo research laboratory in Bar Harbor, Me. Additional ten […] male mice 3 weeks of age (+/-3 days) were also transferred and served as a wild-type control group. The mice were ear notched for identification and housed in ventilated polysulfone cages with HEPA filtered air at a density of 3-4 mice per cage. The animal room was lit entirely with artificial fluorescent lighting on controlled 12 hour light/dark cycle (6 a.m. to 6 p.m. light). […] The animal room was set for 15 air exchanges per hour. Filtered tap water acidified to a pH of 2.8 to 3.2 was provided ad libitum. […] Prior to study initiation, mice were acclimated for 3 days. Mice were tested for grip strength and in the open field at ages 25 and 26 days, and drug regimen was initiated at age 27 days. Mice were monitored twice weekly for clinical observations and body weights. […] 24 hours after the second open field tests, blood was collected by retro-orbital bleeding, and mice were humanely euthanized by CO2 asphyxiation. One triceps surae was collected fresh and processed for immune cell sorting, one tibialis anterior was preserved in RNALater for RNA extraction, one whole hind limb and the diaphragm were fixed in 2% paraformaldehyde overnight at 4° C. for paraffin embedding and histology stains. Total RNAs were extracted with a modification of the Trizol method, reverse transcribed, and mRNAs of TGFβ, and the following inflammation markers were quantified by the SYBR green method with GAPDH as a normalizer: […]

Lgals3 mRNA = experiment: mRNA quantification (RT PCR) of Lgals3 in muscles of mdx mice; type: in vivo, mouse
Source text: as §5

CD53 mRNA = experiment: mRNA quantification (RT PCR) of CD53 in muscles of mdx mice; type: in vivo, mouse
Source text: as §5

CD48 mRNA = experiment: mRNA quantification (RT PCR) of CD48 in muscles of mdx mice; type: in vivo, mouse
Source text: as §5

CD11b mRNA = experiment: mRNA quantification (RT PCR) of CD11b in muscles of mdx mice; type: in vivo, mouse
Source text: as §5

TGFβ mRNA = experiment: mRNA quantification (RT PCR) of pro-fibrotic growth factor TGFβ in muscles of mdx mice; type: in vivo, mouse
Source text: as §5

IL-6 mRNA = experiment: mRNA quantification (RT PCR) of IL-6 in muscles of mdx mice; type: in vivo, mouse; conditions: mdx mice muscle
Source text: as §5

Mpeg1 mRNA = experiment: mRNA quantification (RT PCR) of Mpeg1 in muscles of mdx mice; type: in vivo, mouse; conditions: mdx mice muscle
Source text: as §5

Ly6C1 mRNA = experiment: mRNA quantification (RT PCR) of Ly6C1 in muscles of mdx mice; type: in vivo, mouse; conditions: mdx mice muscle
Source text: as §5

eosinophils = conditions: DMD / mdx dystrophic muscle, previous studies; cited from earlier work
T cells = conditions: correlated with reduction in muscle necrosis and fibrosis; very early studies; cited from earlier work
[6] = doses as in the table (carbidopa 100, benserazide 20 mg/kg po twice/day; prednisolone 1 mg/kg ip once/day)
[7] = 20 mg/kg po twice/day, mdx mice muscle, GAPDH as normalizer
[8] = treatment alone, mdx mouse muscle

NC(CO)C(=O)NNCc1ccc(O)c(O)c1O (stereo not drawn) [Benserazide]
reduction in inflammatory infiltrates compared to vehicle (H & E staining) (diaphragms of mdx mice): ~50% | reduction in macrophage infiltration compared to vehicle (F4/80 staining) (macrophages): ~50% | % change compared to vehicle (CD11b+ myeloid cells) (CD11b+ myeloid cells; 7 mg/kg po twice/day): −13.7% | % of viable cells (CD11b+ myeloid cells) (CD11b+ myeloid cells; 7 mg/kg po twice/day): 31.4% | % change compared to vehicle (CD11b+ myeloid cells) (CD11b+ myeloid cells; 20 mg/kg po twice/day): −32.4% | % of viable cells (CD11b+ myeloid cells) (CD11b+ myeloid cells; 20 mg/kg po twice/day): 24.6* % | reduction of CD11b+ myeloid cell recruitment compared with vehicle (CD11b+ myeloid cells; higher dose of benserazide): approximately one-third | % change compared to vehicle (CD11b+Ly6Chigh profibrotic myeloid cells) ([1]; 7 mg/kg po twice/day): −11.5% | % of viable cells (CD11b+Ly6Chigh profibrotic myeloid cells) ([1]; 7 mg/kg po twice/day): 6.49% | % change compared to vehicle (CD11b+Ly6Chigh profibrotic myeloid cells) ([1]; 20 mg/kg po twice/day): −26.9% | % of viable cells (CD11b+Ly6Chigh profibrotic myeloid cells) ([1]; 20 mg/kg po twice/day): 5.36% | effect on recruitment of profibrotic myeloid cells compared with vehicle ([1]; both doses): little, if any, statistically significant effect | % change compared to vehicle (CD11b+Ly6Clow anti-fibrotic myeloid cells) ([2]; 7 mg/kg po twice/day): −16.5% | % of viable cells (CD11b+Ly6Clow anti-fibrotic myeloid cells) ([2]; 7 mg/kg po twice/day): 22.7% | % change compared to vehicle (CD11b+Ly6Clow anti-fibrotic myeloid cells) ([2]; 20 mg/kg po twice/day): −27.9% | % of viable cells (CD11b+Ly6Clow anti-fibrotic myeloid cells) ([2]; 20 mg/kg po twice/day): 19.6* % | inhibition of recruitment of anti-fibrotic myeloid cells compared with vehicle ([2]; higher dose of benserazide, statistically significant): 27.9% | relative levels of pro- and anti-fibrotic myeloid cells [3]: not affected | % change compared to vehicle (lymphoid CD4+CD8- T cells) ([4]; 20 mg/kg po twice/day, 4 weeks): −37.0% | % of viable cells (lymphoid CD4+CD8- T cells) ([4]; 20 mg/kg po twice/day, 4 weeks): 9.2* % | reduction of recruitment of lymphoid CD4+CD8- T cells compared with vehicle [4, 6]: over 50% | % change compared to vehicle (lymphoid CD4-CD8- DN T cells) ([5]; 20 mg/kg po twice/day, 4 weeks): −44.8% | % of viable cells (lymphoid CD4-CD8- DN T cells) ([5]; 20 mg/kg po twice/day, 4 weeks): 18** % | reduction of recruitment of lymphoid DN T cells compared with vehicle [5, 6]: over 50% | TNF mRNA level (TNF mRNA; [7]): 0.79 | effect on the level of TNF mRNA (TNF mRNA; [8]): No significant effect | Lgals3 mRNA level (Lgals3 mRNA; [7]): 0.95 | effect on the level of Lgals3 mRNA (Lgals3 mRNA; [8]): no significant effect | CD53 mRNA level (CD53 mRNA; [7]): 0.95 | effect on the level of CD53 mRNA (CD53 mRNA; [8]): not significantly affected | CD48 mRNA level (CD48 mRNA; [7]): 0.85 | effect on the level of CD48 mRNA (CD48 mRNA; [8]): no significant effect | CD11b mRNA level (CD11b mRNA; [7]): 1.12 | effect on the level of CD11b mRNA (CD11b mRNA; [8]): not significantly affected | % change compared to vehicle (TGFβ mRNA) (TGFβ mRNA; 20 mg/kg po twice/day, mdx mice muscle): −34.7% | TGFβ mRNA (TGFβ mRNA; [7]): 0.79 | reduction of the TGFβ mRNA level (fraction in words) (TGFβ mRNA; treatment alone, muscle of mdx mice): over a third | effect on IL-6 mRNA level (IL-6 mRNA): No effects | effect on Mpeg1 mRNA level (Mpeg1 mRNA): No effects | effect on Ly6C1 mRNA level (Ly6C1 mRNA): No effects

C[C@]12C=CC(=O)C=C1CC[C@@H]1[C@@H]2C(=O)C[C@@]2(C)[C@H]1CC[C@]2(O)C(=O)CO [Prednisone, prednisone]
effect on eosinophil infiltration (eosinophils): reduce eosinophil infiltration | effect on T cells in DMD patients (T cells): reduction in T cells
